How the values were obtained:
Format in all cases: biochemical
[1] = target: T1, DYRK1A (Homo sapiens, UniProt Q13627); assay: Inhibition test on activity of DYRK family, mobility shift assay (MSA), DYRK1A; settings: ATP 100 μM, FITC-labeled DYRKtide peptide substrate, room temperature 1 hour
T1 construct: purchased Carna Biosciences, Inc. 04-130
In short: (§1)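 FITC-DYRKtide phosphorylation in 20 mM HEPES pH 7.5 with MgCl2; ATP in the substrate mix was 100 μM (DYRK1A), 200 μM (DYRK1B), 40 μM (DYRK2) or 20 μM (DYRK3). Reactions ran 1 h at room temperature; inhibition from P/(P+S) versus blank and DMSO control, IC50 by regression on log concentration.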

[2] = target: T2, DYRK1B (Homo sapiens, UniProt Q9Y463); assay: Inhibition test on activity of DYRK family, mobility shift assay (MSA), DYRK1B; design: Inhibitory Activity 1b (IC50 against DYRK1B): scale not given here; settings: ATP 200 μM, FITC-labeled DYRKtide peptide substrate, room temperature 1 hour
T2 construct: purchased Carna Biosciences, Inc. 04-131
T2 sequence (Q9Y463 whole entry): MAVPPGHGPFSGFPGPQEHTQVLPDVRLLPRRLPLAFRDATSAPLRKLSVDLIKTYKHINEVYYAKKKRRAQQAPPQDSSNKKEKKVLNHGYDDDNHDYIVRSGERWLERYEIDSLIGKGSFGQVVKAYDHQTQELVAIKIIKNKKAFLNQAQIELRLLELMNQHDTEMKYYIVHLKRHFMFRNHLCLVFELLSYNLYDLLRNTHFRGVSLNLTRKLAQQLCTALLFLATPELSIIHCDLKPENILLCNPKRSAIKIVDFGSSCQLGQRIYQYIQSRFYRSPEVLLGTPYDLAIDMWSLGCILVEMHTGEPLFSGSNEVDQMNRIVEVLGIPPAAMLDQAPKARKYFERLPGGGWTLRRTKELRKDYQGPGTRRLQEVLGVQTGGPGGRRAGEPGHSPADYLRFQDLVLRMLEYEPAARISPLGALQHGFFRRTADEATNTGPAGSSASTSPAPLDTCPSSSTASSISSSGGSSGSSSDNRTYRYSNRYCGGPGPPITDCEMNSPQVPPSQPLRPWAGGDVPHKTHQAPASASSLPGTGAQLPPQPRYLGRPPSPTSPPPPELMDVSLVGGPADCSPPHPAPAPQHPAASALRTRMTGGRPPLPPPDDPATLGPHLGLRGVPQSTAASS
Protocol: [Inhibition Test on Activity of DYRK Family (DYRK1A, DYRK1B, DYRK2, and […])]
(Method for Measuring Kinase Activity)
The kinase activity was measured by mobility shift assay (MSA) method using QuickScout Screening Assist™ MSA (commercially available kit manufactured by Carna Biosciences, Inc.). The substrate of the kinase reaction used was an FITC-labeled DYRKtide peptide included in the kit. An assay buffer [20 mM HEPES, 0.01% Triton X-100™, 2 mM dithiothreitol, pH 7.5] was used to create a substrate mixture solution with a substrate (4 μM), MgCl2 (20 mM), and ATP (DYRK1A: 100 μM; DYRK1B: 200 μM; DYRK2: 40 μM; and DYRK3: 20 μM). In addition, kinases (DYRK1A: manufactured by Carna Biosciences, Inc., Cat. No. 04-130; DYRK1B: manufactured by Carna Biosciences, Inc., Cat. No. 04-131; DYRK2; manufactured by Carna Biosciences, Inc., Cat. No. 04-132; and DYRK3; manufactured by Carna Biosciences, Inc., Cat. No. 04-133) were diluted with the assay buffer to prepare enzyme solutions (DYRK1A: 0.2 ng/μL; DYRK1B: 0.08 ng/μL; DYRK2: 0.04 ng/μL; and DYRK3: 0.25 ng/μL). The 10 mM solution of the test compound in DMSO was further diluted with DMSO to 10 levels of the concentration (0.00003 mM, 0.0001 mM, 0.0003 mM, 0.001 mM, 0.003 mM, 0.01 mM, 0.03 mM, 0.1 mM, 0.3 mM, and 1 mM), each of which was subjected to 25-fold dilution with the assay buffer to obtain a drug solution (4% DMSO solution). 5 μL of the drug solution or a control solution (4% DMSO-assay buffer), 5 μL of the substrate mixture solution, and 10 μL of the enzyme solution were mixed in the wells of a polypropylene 384-well plate and allowed to react at room temperature for 1 hour, and then the reaction was quenched by adding 60 μL of the termination buffer included in the kit. Subsequently, the quantities of the substrates (S) and the phosphorylated substrate (P) in the reaction solution were measured using LabChip EZ Reader II system (manufactured by Caliper Life Sciences) according to the protocol of the assay kit.
(Method for Evaluating Inhibitory Activity)
The heights of the peaks of the “substrate” and the “phosphorylated substrate” were expressed as S and P, respectively, and a blank containing the assay buffer instead of the enzyme solution was also measured.
The inhibition rate (%) of the test compound was calculated according to the following equation:
Inhibition rate (%)=(1−(C−A)/(B−A))×100
wherein, A, B, and C represent P/(P+S) of the blank well, P/(P+S) of the control solution well, and P/(P+S) of the compound-containing well, respectively.
The IC50 value was calculated via a regression analysis of the inhibition rate and the test compound concentration (logarithmic value).
The inhibiting activities of representative compounds of the present invention are shown against DYRK1A, DYRK1B, DYRK2, and DYRK3 in Tables 7 and 8. The kinase activity inhibitory effect was indicated with the mark *** at an IC50 value of less than 0.01 μM; the mark ** at 0.01 μM or more and less than 0.1 μM; the mark * at 0.1 μM or more and less than 1 μM; and the mark — at 1 μM or more (N.D. indicates not measured).

[3] = target: T3, DYRK2 (Homo sapiens, UniProt Q92630); assay: Inhibition test on activity of DYRK family, mobility shift assay (MSA), DYRK2; settings: ATP 40 μM, FITC-labeled DYRKtide peptide substrate, room temperature 1 hour; read-out: Inhibitory Activity 2 (IC50 against DYRK2)
T3 construct: purchased Carna Biosciences, Inc. 04-132
T3 sequence (Q92630 1-601): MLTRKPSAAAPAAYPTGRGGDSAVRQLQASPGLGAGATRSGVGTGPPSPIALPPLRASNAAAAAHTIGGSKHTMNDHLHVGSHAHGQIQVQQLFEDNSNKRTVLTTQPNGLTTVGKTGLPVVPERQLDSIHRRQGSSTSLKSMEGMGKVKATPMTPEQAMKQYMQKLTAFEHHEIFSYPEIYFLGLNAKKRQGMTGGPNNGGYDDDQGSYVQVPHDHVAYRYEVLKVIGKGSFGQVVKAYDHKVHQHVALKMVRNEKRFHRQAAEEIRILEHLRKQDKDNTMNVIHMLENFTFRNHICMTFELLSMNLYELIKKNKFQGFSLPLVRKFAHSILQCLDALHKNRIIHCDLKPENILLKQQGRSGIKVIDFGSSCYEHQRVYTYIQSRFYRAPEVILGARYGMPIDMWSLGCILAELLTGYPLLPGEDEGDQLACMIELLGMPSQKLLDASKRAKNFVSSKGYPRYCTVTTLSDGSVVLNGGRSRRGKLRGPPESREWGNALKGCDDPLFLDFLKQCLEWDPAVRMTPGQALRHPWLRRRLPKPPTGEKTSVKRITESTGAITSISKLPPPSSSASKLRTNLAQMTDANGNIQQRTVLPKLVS
In short: as §1

[4] = target: T4, DYRK3 (Homo sapiens, UniProt O43781); assay: Inhibition test on activity of DYRK family, mobility shift assay (MSA), DYRK3; settings: ATP 20 μM, FITC-labeled DYRKtide peptide substrate, room temperature 1 hour; for IC50: read-out: Inhibitory Activity 3 (IC50 against DYRK3)
T4 construct: purchased Carna Biosciences, Inc. 04-133
T4 sequence (O43781 1-588): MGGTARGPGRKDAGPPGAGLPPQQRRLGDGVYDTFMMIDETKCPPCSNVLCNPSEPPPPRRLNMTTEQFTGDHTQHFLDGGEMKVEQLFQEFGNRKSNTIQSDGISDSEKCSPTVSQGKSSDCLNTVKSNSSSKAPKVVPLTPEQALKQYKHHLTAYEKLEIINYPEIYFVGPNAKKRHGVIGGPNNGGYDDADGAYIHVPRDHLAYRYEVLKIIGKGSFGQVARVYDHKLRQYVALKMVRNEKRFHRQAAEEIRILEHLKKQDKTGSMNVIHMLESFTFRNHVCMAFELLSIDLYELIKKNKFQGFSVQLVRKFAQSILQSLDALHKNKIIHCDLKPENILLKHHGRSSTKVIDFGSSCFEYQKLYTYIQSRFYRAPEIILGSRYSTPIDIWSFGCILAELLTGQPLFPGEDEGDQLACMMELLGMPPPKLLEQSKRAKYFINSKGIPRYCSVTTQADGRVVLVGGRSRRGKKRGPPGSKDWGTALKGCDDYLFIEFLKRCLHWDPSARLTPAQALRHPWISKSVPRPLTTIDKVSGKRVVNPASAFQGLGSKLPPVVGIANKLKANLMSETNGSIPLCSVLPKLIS
In short: as §1

Compound	Inhibitory Activity 1a (IC50 against DYRK1A) [1]	Inhibitory Activity 1b (IC50 against DYRK1B) [2]	IC50 [3] [µM]	Inhibitory Activity 3 (IC50 against DYRK3) [4]	IC50 [4] [µM]	IC50 ([1]; read-out: Inhibitory Activity 1a (IC50 against DYRK1A)) [µM]	IC50 ([2]; read-out: Inhibitory Activity 1b (IC50 against DYRK1B)) [µM]
CC#CC1CNC(=O)N1c1nc2c(ccc3ncccc32)s1 (racemic) [Example 27, (RS)-5-(prop-1-yn-1-yl)-1-(thiazolo[4,5-f]quinolin-2-yl)imidazolidin-2-one]	* **	* * *	0.1 to 1	* *			
CC#CC1CNC(=O)N1c1nc2c(ccc3ncn(CCOC)c32)s1 (racemic) [Example 33, (RS)-1-[8-(2-methoxyethyl)-8H-imidazo[4′,5′:5,6]benz[1,2-d]thiazol-2-yl]-5-(prop-1-yn-1-yl)imidazolidin-2-one]	* *	* *	0.1 to 1		0.1 to 1		
CC#CC1CNC(=O)N1c1nc2c(ccc3ncn(C)c32)s1 (racemic) [Example 26, (RS)-1-(8-methyl-8H-imidazo[4′,5′:5,6]benz[1,2-d]thiazol-2-yl)-5-(prop-1-yn-1-yl)imidazolidin-2-one]	* * *	* * *	0.1 to 1	* *			
CC#CC1CNC(=O)N1c1nc2c(ccc3nnn(C)c32)s1 (racemic) [Example 28, (RS)-1-(1-methyl-1H-thiazolo[4′,5′:3,4]benz[1,2-d][1,2,3]triazol-7-yl)-5-(prop-1-yn-1-yl)imidazolidin-2-one]	* * *	* * *	≥ 1		0.1 to 1		
CC#C[C@H]1CNC(=O)N1c1nc2c3c(ccc2s1)OCO3 [Example 3, (S)-1-([1,3]dioxolo[4′,5′:5,6]benzo[1,2-d]thiazol-7-yl)-5-(1-propyn-1-yl)imidazolidin-2-one]	* *	* *	≥ 1		≥ 1		
CC#CC1CNC(=O)N1c1nc2c(ccc3nnn(C)c32)s1 (single isomer, unassigned) [Example 29, 1-(1-methyl-1H-thiazolo[4′,5′:3,4]benz[1,2-d][1,2,3]triazol-7-yl)-5-(prop-1-yn-1-yl)imidazolidin-2-one]			≥ 1		≥ 1	0.1 to 1	0.1 to 1
